Laboratory results reported in ChEMBL document CHEMBL1201862, “PubChem BioAssay data set” (2004).
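Step 1: Grow cells in 96-well plates. Step 2: Expose to compound for 48 hours at 5 concentrations. Step 3: Interpolate endpoints linearly; if unreached, use highest concentration. GI50 = concentration required for 50% inhibition of growth.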 Calls of active or inactive are those of the source. No stated cut-off is given here; in the data, active = GI50 up to about 1.1 µM and inactive = higher.

How the values were obtained:
Assay in all cases: inhibition of tumour cell growth, NCI panel, 48 h
ACHN = system: ACHN
MDA-MB-435 = system: MDA-MB-435
NCI/ADR-RES = system: NCI/ADR-RES
MDA-N = system: MDA-N
786-0 = system: 786-0
NCI-H226 = system: NCI-H226
T47D = system: T47D
DU-145 = system: DU-145
SF-539 = system: SF-539
BT-549 = system: BT-549
RXF 393 = system: RXF 393
HOP-92 = system: HOP-92
MDA-MB-231 = system: MDA-MB-231
UACC-62 = system: UACC-62
MCF7 = system: MCF7
Hs-578T = system: Hs-578T
HCC 2998 = system: HCC 2998
HL-60 = system: HL-60
SR = system: SR

Row | SMILES | GI50 (ACHN) | GI50 (MDA-MB-435) | GI50 (NCI/ADR-RES) | GI50 (MDA-N) | GI50 (786-0) | GI50 (NCI-H226) | GI50 (T47D) | GI50 (DU-145) | GI50 (SF-539) | GI50 (BT-549) | GI50 (RXF 393) | GI50 (HOP-92) | GI50 (MDA-MB-231) | GI50 (UACC-62) | GI50 (MCF7) | GI50 (Hs-578T) | GI50 (HCC 2998) | GI50 (HL-60) | GI50 (SR)
1 | C/C(=C/C(=O)N(C)c1ccccc1Cl)O[Si](C(C)C)(C(C)C)C(C)C | > 10 µM (inactive) | 32.1 µM (inactive) | 19.9 µM (inactive) | 21.3 µM (inactive) | 18.1 µM (inactive) | 15.8 µM (inactive) | 31.3 µM (inactive) | 32.1 µM (inactive) | 21.3 µM (inactive) | 22.5 µM (inactive) | 17.3 µM (inactive) | 16.1 µM (inactive) | 22.4 µM (inactive) | – | – | – | – | – | –
2 | CC(C)(C)C(=O)N1CCN(C=O)C1=S | 57.9 µM (inactive) | 35.9 µM (inactive) | > 100 µM (inactive) | – | 36.7 µM (inactive) | > 100 µM (inactive) | 34 µM (inactive) | 33.5 µM (inactive) | > 100 µM (inactive) | 46.2 µM (inactive) | 24.6 µM (inactive) | 16.8 µM (inactive) | > 100 µM (inactive) | 32.1 µM (inactive) | 15.6 µM (inactive) | 58.5 µM (inactive) | 64.9 µM (inactive) | 47.3 µM (inactive) | –
3 | O=c1c(C(c2ccc3ccccc3c2)c2c(O)oc3cc(O)ccc3c2=O)c(O)oc2cc(O)ccc12 | – | 46 µM (inactive) | > 100 µM (inactive) | – | > 100 µM (inactive) | > 100 µM (inactive) | > 100 µM (inactive) | > 100 µM (inactive) | 84.1 µM (inactive) | 54.2 µM (inactive) | 88.5 µM (inactive) | 75 µM (inactive) | > 100 µM (inactive) | > 100 µM (inactive) | 43.2 µM (inactive) | 21.3 µM (inactive) | > 100 µM (inactive) | 38.5 µM (inactive) | 26.6 µM (inactive)
4 | COC(=O)c1cc(CNCCc2c[nH]c3ccccc23)on1 | > 60.8 µM (inactive) | – | > 100 µM (inactive) | > 100 µM (inactive) | 33.8 µM (inactive) | > 100 µM (inactive) | > 100 µM (inactive) | > 100 µM (inactive) | 74.1 µM (inactive) | – | > 66.8 µM (inactive) | 92.5 µM (inactive) | – | > 100 µM (inactive) | > 100 µM (inactive) | > 100 µM (inactive) | > 95.5 µM (inactive) | > 100 µM (inactive) | > 100 µM (inactive)
5 | CN(C)Cc1cc(/C=C/C(=O)c2ccc(Cl)c(Cl)c2)cc(CN(C)C)c1O | 12.8 µM (inactive) | 5.32 µM (inactive) | 19 µM (inactive) | 11.2 µM (inactive) | 9.4 µM (inactive) | – | 11 µM (inactive) | 13.9 µM (inactive) | 6.92 µM (inactive) | 7.74 µM (inactive) | 11 µM (inactive) | – | 7.05 µM (inactive) | 14.3 µM (inactive) | 12.9 µM (inactive) | – | 6.35 µM (inactive) | 3.9 µM (inactive) | –
6 | CNC(C)C(O)c1ccc2oc3cc(=O)c4ccccc4c-3nc2c1 (centres undefined) | 6.25 µM (inactive) | 1.97 µM (inactive) | 14.4 µM (inactive) | – | – | – | 31.6 µM (inactive) | 5.31 µM (inactive) | 1.45 µM (inactive) | 7.76 µM (inactive) | 25.8 µM (inactive) | 94.6 µM (inactive) | 45.5 µM (inactive) | 3.82 µM (inactive) | 18.9 µM (inactive) | 2.26 µM (inactive) | 27.9 µM (inactive) | 21.8 µM (inactive) | –
7 | Fc1ccc(C(OCCN2CC3CC2CN3)c2ccc(F)cc2)cc1 (centres undefined) | > 100 µM (inactive) | 23.1 µM (inactive) | 97.9 µM (inactive) | – | – | 59 µM (inactive) | 35.2 µM (inactive) | > 100 µM (inactive) | 29.6 µM (inactive) | > 100 µM (inactive) | 27.4 µM (inactive) | 69.2 µM (inactive) | 46.8 µM (inactive) | 19.5 µM (inactive) | 33.7 µM (inactive) | 57.3 µM (inactive) | 16.4 µM (inactive) | 20.5 µM (inactive) | 27.5 µM (inactive)
8 | C=C1CCCC(C)(C)[C@@H]1CC/C(C)=C/Cn1c2cccc(=O)c-2nc2ccccc21 | – | – | 0.656 µM (active) | – | – | 3.99 µM (inactive) | – | – | 1.66 µM (inactive) | – | – | 1.94 µM (inactive) | – | 0.771 µM (active) | 2.55 µM (inactive) | – | 2.06 µM (inactive) | 0.127 µM (active) | –
9 | O=c1c(-c2ccccc2)c(SCCCN2CCN(c3cccc(Cl)c3)CC2)n(-c2ccccc2)c(=S)n1-c1ccccc1 | > 100 µM (inactive) | 16.8 µM (inactive) | > 100 µM (inactive) | – | – | > 100 µM (inactive) | – | > 100 µM (inactive) | > 100 µM (inactive) | > 100 µM (inactive) | > 100 µM (inactive) | > 100 µM (inactive) | > 100 µM (inactive) | > 100 µM (inactive) | > 100 µM (inactive) | > 100 µM (inactive) | > 100 µM (inactive) | > 100 µM (inactive) | 29 µM (inactive)
